Where a name gives a salt, the structure may show the parent alone.
Key:
[1] = pH 3.4
Protocol: Two solutions A and B were prepared. […] These two solutions were stirred at room temperature until thermodynamic equilibrium was reached.

[2] = Competition for the complexation with colored indicators; assay type: physicochemical; settings: complex with β-cyclodextrin
From the text: In this case, the cetirizine comes into competition with the colored indicator for the formation of an inclusion complex. The changes in the visible-range spectrum thus make it possible to determine whether or not cetirizine forms an inclusion complex with cyclodextrin. Two acid-base indicators were used; crystal violet and methyl orange. In the case of the acid-base indicators, the changes in the absorption spectrum due to complexation with a cyclodextrin are often large given that the complexation brings about a change in the pK of the indicator. If the pH of the solution is close to the pK, the addition of a cyclodextrin to an acid-base indicator solution brings about ionization or deionization of the indicator, which is reflected by a change in the color of the solution. Consequently, the absorption maximum in the visible spectrum is displaced as a function of the degree of complexation. […] (J.

Structure (SMILES)	increase of solubility (factor) [1]	association constant (average value) ([2]; competition with crystal violet) [mol⁻¹]	association constant (average value) ([2]; competition with methyl orange) [mol⁻¹]
OC[C@H]1O[C@@H]2O[C@H]3[C@H](O)[C@@H](O)[C@@H](O[C@H]4[C@H](O)[C@@H](O)[C@@H](O[C@H]5[C@H](O)[C@@H](O)[C@@H](O[C@H]6[C@H](O)[C@@H](O)[C@@H](O[C@H]7[C@H](O)[C@@H](O)[C@@H](O[C@H]8[C@H](O)[C@@H](O)[C@@H](O[C@H]1[C@H](O)[C@H]2O)O[C@@H]8CO)O[C@@H]7CO)O[C@@H]6CO)O[C@@H]5CO)O[C@@H]4CO)O[C@@H]3CO [β-cyclodextrin]	at least 30	–	–
O=C(O)COCCN1CCN(C(c2ccccc2)c2ccc(Cl)cc2)CC1 (stereo not drawn) [cetirizine dihydrochloride, 2-[2-[4-[(4-chlorophenyl)phenylmethyl]-1-piperazinyl]ethoxy]acetic acid]	–	3292	3587

From patent publication US6455533B1, “Pharmaceutical compositions for oral administration, comprising an active substance and a cyclodextrin” (UCB, S.A., priority 1997, dated 2002)
